From US20260285850A1, “SUBSTITUTED OXAZOLIDINONES AND IMIDAZOLINONES AS HERBICIDES” (FMC CORPORATION, priority 2023, published 2026)

Experiments:
Type in all cases: in vivo
[1] = test system: ragweed (common ragweed, Ambrosia artemisiifolia); test: Test A postemergence application, visual injury rating 0-100; settings: Postemergence, 1000 g ai/ha, 0 to 100 scale, 10 days
How it was run: (§1)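 Grow plants in loam soil blended with sand. Apply formulated compound (non-phytotoxic solvent, surfactant) as a directed soil spray before emergence, or to plants at the one- to two-leaf stage after emergence. Hold in greenhouse 10 days, then rate injury visually versus untreated controls on a 0-100 scale.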

[2] = test system: goosegrass (Eleusine indica); test: as above; settings: 1000 g ai/ha, 0 to 100 scale, 10 days
How it was run: as §1

[3] = test system: palmer (palmer amaranth, palmer pigweed, Amaranthus palmeri); test: as above; settings: Postemergence, 1000 g ai/ha, 0 to 100 scale, 10 days
How it was run: as §1

[4] = test system: blackgrass (Alopecurus myosuroides); test: as above; settings: Postemergence, 1000 g ai/ha, 0 to 100 scale, 10 days
How it was run: as §1

[5] = test system: galium (catchweed bedstraw, Galium aparine); test: as above; settings: Postemergence, 1000 g ai/ha, 0 to 100 scale, 10 days
How it was run: as §1

[6] = test system: foxtail, giant (giant foxtail, Setaria faberi); test: as above; settings: 1000 g ai/ha, 0 to 100 scale, 10 days
How it was run: as §1

kochia (Bassia scoparia) [7] = test: as above; settings: Postemergence, 1000 g ai/ha, 0 to 100 scale, 10 days
How it was run: as §1

[8] = test system: horseweed (Erigeron canadensis); test: as above; settings: Postemergence, 1000 g ai/ha, 0 to 100 scale, 10 days
How it was run: as §1

[9] = test system: ryegrass, Italian (italian ryegrass, Lolium multiflorum); test: as above; settings: Postemergence, 1000 g ai/ha, 0 to 100 scale, 10 days
How it was run: as §1

[10] = test system: sedge, umbrella (small-flower umbrella sedge, Cyperus difformis); test: Test B flooded paddy test, visual plant response rating 0-100; settings: 250 g ai/ha, Flood, applied to paddy water, evaluated after 13 days
How it was run: (§2)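 Paddy-water application: test compounds went directly into water flooded 3 cm above the soil surface, with plants at 2 leaves. After a 13-day greenhouse period, responses were judged by eye relative to controls; a dash marks an untested entry.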

rice (Oryza sativa) = test: as above; settings: 250 g ai/ha, Flood, applied to paddy water, evaluated after 13 days
How it was run: as §2

[11] = test system: barnyardgrass (Echinochloa crusgalli); test: as above; settings: 250 g ai/ha, Flood, applied to paddy water, evaluated after 13 days
How it was run: as §2

[12] = test system: ducksalad (Heteranthera limosa); test: as above; settings: 250 g ai/ha, Flood, applied to paddy water, evaluated after 13 days
How it was run: as §2

[13] = test system: ragweed (common ragweed, Ambrosia artemisiifolia); test: Test A preemergence soil spray, visual injury rating 0-100; settings: 1000 g ai/ha, 10 days, 0 = no effect, 100 = complete control
How it was run: as §1

[14] = test system: goosegrass (Eleusine indica); test: as above; settings: 1000 g ai/ha, 10 days, 0 = no effect, 100 = complete control
How it was run: as §1

[15] = test system: palmer (palmer amaranth, palmer pigweed, Amaranthus palmeri); test: as above; settings: 1000 g ai/ha, 10 days, 0 = no effect, 100 = complete control
How it was run: as §1

[16] = test system: blackgrass (Alopecurus myosuroides); test: as above; settings: 1000 g ai/ha, 10 days, 0 = no effect, 100 = complete control
How it was run: as §1

[17] = test system: foxtail, giant (giant foxtail, Setaria faberi); test: as above; settings: 1000 g ai/ha, 10 days, 0 = no effect, 100 = complete control
How it was run: as §1

kochia (Bassia scoparia) [18] = test: as above; settings: 1000 g ai/ha, 10 days, 0 = no effect, 100 = complete control
How it was run: as §1

[19] = test system: ryegrass, Italian (italian ryegrass, Lolium multiflorum); test: as above; settings: 1000 g ai/ha, 10 days, 0 = no effect, 100 = complete control
How it was run: as §1

Structure (SMILES) | Ragweed plant response rating [1] | Goosegrass plant response rating [2] | Amaranth, Palmer plant response rating [3] | Blackgrass plant response rating [4] | Galium plant response rating [5] | Foxtail, Giant plant response rating [6] | Kochia plant response rating (kochia (Bassia scoparia) [7]) | Horseweed plant response rating [8] | Ryegrass, Italian plant response rating [9] | Plant response rating, Sedge, Umbrella (0 to 100 scale, 0 is no effect and 100 is complete control) [10] | Plant response rating, Rice (0 to 100 scale, 0 is no effect and 100 is complete control) (rice (Oryza sativa)) | Plant response rating, Barnyardgrass (0 to 100 scale, 0 is no effect and 100 is complete control) [11] | Plant response rating, Ducksalad (0 to 100 scale, 0 is no effect and 100 is complete control) [12] | Ragweed plant response rating (0 to 100 scale) [13] | Goosegrass plant response rating (0 to 100 scale) [14] | Amaranth, Palmer / Pigweed, Palmer plant response rating (0 to 100 scale) [15] | Blackgrass plant response rating (0 to 100 scale) [16] | Foxtail, Giant plant response rating (0 to 100 scale) [17] | Kochia plant response rating (0 to 100 scale) (kochia (Bassia scoparia) [18]) | Ryegrass, Italian plant response rating (0 to 100 scale) [19]
CNC(=O)C1C=CC(NC(=O)C2(C)CN(c3cc(F)cc(F)c3)C(=O)O2)C1 (centres unmarked) [Compound 26] | 50 | 90 | 90 | 90 | 70 | 90 | 80 | 70 | 70 | 95 | 35 | 45 | 95 | 90 | 100 | 100 | 100 | 100 | 90 | 100
COC(=O)[C@@H]1C=C[C@H](NC(=O)C2(C)CN(c3cc(F)cc(F)c3)C(=O)O2)C1 (stereo partly drawn) [Compound 27, Methyl (1S,4R)-4-[[[3-(3,5-difluorophenyl)-5-methyl-2-oxo-5-oxazolidinyl]carbonyl]amino]-2-cyclopentene-1-carboxylate] | 80 | 90 | 90 | 90 |  | 90 | 80 | 80 | 100 | 50 | 35 | 90 | 85 | 50 | 100 | 100 |  | 100 | 100 | 100
